In brackets after ≈: the same amount, converted by molar mass.

One series has as its system HIV-1 IIIB strain. Put plainly: MT-4 HIV Wild Type Virus Infection Assay (IIIB Virus). Format: cell-based. The note with it: Human immunodeficiency virus 1, IIIB, MT4, 120 h, MT-4 cells acutely infected with HIV-1 IIIB, 5 day incubation, Cell-titer glo. The method in brief: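 MT-4 cells at 2×10^6 cells/ml in RPMI/10% FBS were acutely infected with HIV-1 IIIB for 1 h at 37° C, diluted 25× and added to serially diluted compounds. After 5 days at 37° C, viability read by CellTiter-Glo luminescence; EC50 from dose-response curves.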

Series [1] addresses bovine intestinal alkaline phosphatase (Bos taurus (Bovine), UniProt P19111). Put plainly: BiALP: conversion by bovine intestinal alkaline phosphatase. The format is in vitro ADME. Particulars: 2 μM substrate, 100 ng/mL iALP, Tris pH 7.8, 37° C., 60 minutes; for [Intermediate A] or [Amprenavir]: parent formed. The method in brief:
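Compounds at 2 μM final were incubated 60 min at 37° C in 0.1 M Tris-HCl pH 7.8 with 1 mM MgCl2 and 1 mM ZnCl2, with or without 100 ng/mL iALP (0.01 units/mL). Samples were quenched with acetonitrile/formic acid containing labetalol. Conversion was quantified by LC-MS peak area ratios against a 2 μM product standard.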

The next series can be described thus: PBS Stability Assay. Format: physicochemical. The note with it: buffer, pH 7.4, 2 μM, phosphate buffered saline pH 7.4; read-out: PBS T½. The method in brief:
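Test compound at 2 μM final was incubated in PBS, pH 7.4, and sampled at 0, 10, 20, 30, 60 and 120 min into acetonitrile/1% formic acid quench with labetalol internal standard. Remaining compound was quantified by LC-MS peak-area ratio, and half-life came from a first-order exponential fit.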

The nature of a further series: Solubility in FaSSIF. Particulars: 23 °C, pH 6.5, fassif, thermodynamic from solid. In a few lines:
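Concentration measured by HPLC-UV after solid compound was dosed at 5 mg/mL into pH 6.5 fasted-state simulated intestinal fluid containing taurocholate and lecithin (4:1 molar) and vortexed.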

Sequence of bovine intestinal alkaline phosphatase (P19111 20-506): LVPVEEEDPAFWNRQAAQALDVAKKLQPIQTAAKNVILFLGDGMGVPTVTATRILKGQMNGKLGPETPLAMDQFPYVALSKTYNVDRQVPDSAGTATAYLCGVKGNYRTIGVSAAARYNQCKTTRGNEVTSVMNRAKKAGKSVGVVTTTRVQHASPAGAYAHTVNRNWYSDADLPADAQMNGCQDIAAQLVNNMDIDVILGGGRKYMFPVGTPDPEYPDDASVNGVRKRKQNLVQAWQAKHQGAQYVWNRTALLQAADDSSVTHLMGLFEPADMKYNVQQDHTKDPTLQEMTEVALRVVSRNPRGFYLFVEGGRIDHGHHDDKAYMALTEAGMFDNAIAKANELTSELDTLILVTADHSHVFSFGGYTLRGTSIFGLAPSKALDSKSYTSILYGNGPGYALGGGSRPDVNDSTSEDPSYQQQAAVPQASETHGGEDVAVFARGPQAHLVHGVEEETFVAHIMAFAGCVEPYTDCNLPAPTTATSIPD

The compound `COC(=O)N[C@H](C(=O)N[C@@H](Cc1ccc(C#Cc2cnc(N3CC4CCC(C3)N4C3COC3)nc2)cc1)[C@H](CN(Cc1c(F)cc(-c2ccn(C(F)F)n2)cc1F)NC(=O)[C@@H](NC(=O)OC)C(C)(C)C(F)(F)F)OC(=O)OCOC(=O)CC(C)(C)c1c(CC(=O)N2CC[C@H](C(=O)O)C2)cc(C)cc1OP(=O)(O)O)C(C)(C)C(F)(F)F` [Example 75] registered an EC50 with HIV-1 IIIB strain of 8.1 nM. For the same compound, in series [1], the “[Compound]” value is 1420.1 nM. Moreover, in the series “PBS Stability Assay”, the half-life at 2 μM amounted to 4.77 h. Moreover, the concentration in solution in “Solubility in FaSSIF” (solubility at 2 h) was 4170 µg/mL (≈ 2520 µM).
`COC(=O)N[C@H](C(=O)N[C@@H](Cc1ccc(C#Cc2cnc(N3CC4CCC(C3)N4C3COC3)nc2)cc1)[C@H](CN(Cc1c(F)cc(-c2ccn(C(F)F)n2)cc1F)NC(=O)[C@@H](NC(=O)OC)C(C)(C)C(F)(F)F)OC(=O)CC(C)(C)c1c(CC(=O)N2CCN(CC(=O)O)CC2)cc(C)cc1OP(=O)(O)O)C(C)(C)C(F)(F)F` [Example 82] came in with an EC50 with HIV-1 IIIB strain of 335 nM. Further, the “[Compound]” value in series [1] worked out at 1224.3 nM. The half-life at 2 μM in the series “PBS Stability Assay” was 6.71 h. In “Solubility in FaSSIF”, this compound gave a solubility at 2 h of less than 1000 µg/mL.
As to `COC(=O)N[C@H](C(=O)N[C@@H](Cc1ccc(C#Cc2cnc(N3CC4CCC(C3)N4C3COC3)nc2)cc1)[C@H](CN(Cc1c(F)cc(-c2ccn(C(F)F)n2)cc1F)NC(=O)[C@@H](NC(=O)OC)C(C)(C)C(F)(F)F)OC(=O)OCOC(=O)CC(C)(C)c1c(CC(=O)N2CCN(S(N)(=O)=O)CC2)cc(C)cc1OP(=O)(O)O)C(C)(C)C(F)(F)F` [Example 85], the EC50 with HIV-1 IIIB strain was found to be 2.4 nM. Also, the “[Compound]” value in series [1] was found to be 1466.1 nM. The half-life at 2 μM in “PBS Stability Assay” was determined as 2.27 h. In addition, the solubility at 2 h in the series “Solubility in FaSSIF” was less than 1000 µg/mL.
In the series with HIV-1 IIIB strain, `COC(=O)N[C@H](C(=O)N[C@@H](Cc1ccc(C#Cc2cnc(N3CC4CCC(C3)N4C3COC3)nc2)cc1)[C@H](CN(Cc1c(F)cc(-c2ccn(C(F)F)n2)cc1F)NC(=O)[C@@H](NC(=O)OC)C(C)(C)C(F)(F)F)OC(=O)OCOC(=O)CC(C)(C)c1c(CC(=O)N2CCN(S(=O)(=O)N(C)C)CC2)cc(C)cc1OP(=O)(O)O)C(C)(C)C(F)(F)F` [Example 86] yielded an EC50 of 4.1 nM. For the same compound, in series [1], the “[Compound]” value is 1890 nM, the “biALP Intermediate A or [Amprenavir] (% of total)” value was 5.6 % of total and the “[Intermediate A] or [Amprenavir]” value turned out to be 112.9 nM. Also, in the series “PBS Stability Assay”, the half-life at 2 μM is 2.59 h. For the same compound, the solubility at 2 h in the series “Solubility in FaSSIF” is less than 1000 µg/mL.
Compound `COC(=O)N[C@H](C(=O)N[C@@H](Cc1ccc(C#Cc2cnc(N3CC4CCC(C3)N4C3COC3)nc2)cc1)[C@H](CN(Cc1c(F)cc(-c2ccn(C(F)F)n2)cc1F)NC(=O)[C@@H](NC(=O)OC)C(C)(C)C(F)(F)F)OC(=O)OCOC(=O)CC(C)(C)c1c(CC(=O)N[C@@H](CCC(N)=O)C(=O)O)cc(C)cc1OP(=O)(O)O)C(C)(C)C(F)(F)F` [Example 87] displayed a concentration giving a half-maximal response (EC50) with HIV-1 IIIB strain of 3.6 nM. In addition, the “[Compound]” value in series [1] stood at 1161.5 nM. Besides, the half-life at 2 μM in the series “PBS Stability Assay” came out at 5.41 h. The solubility at 2 h in the series “Solubility in FaSSIF” was found to be 4500 µg/mL (≈ 2670 µM).
Take `COC(=O)N[C@H](C(=O)N[C@@H](Cc1ccc(C#Cc2cnc(N3CC4CCC(C3)N4C3COC3)nc2)cc1)[C@H](CN(Cc1c(F)cc(-c2ccn(C(F)F)n2)cc1F)NC(=O)[C@@H](NC(=O)OC)C(C)(C)C(F)(F)F)OC(=O)CC(C)(C)c1c(CC(=O)N[C@@H](CCC(N)=O)C(=O)O)cc(C)cc1OP(=O)(O)O)C(C)(C)C(F)(F)F` [Example 88]: in the series with HIV-1 IIIB strain, it took 42.8 nM to reach a half-maximal effect (EC50). Also, in series [1], the “[Compound]” value amounted to 1726.6 nM, the “biALP Intermediate A or [Amprenavir] (% of total)” value is 6 % of total and the “[Intermediate A] or [Amprenavir]” value came to 109.8 nM. In addition, in the series “PBS Stability Assay”, the half-life at 2 μM was found to be 6.16 h. This compound showed a solubility at 2 h in “Solubility in FaSSIF” of 4640 µg/mL (≈ 2880 µM).
`COC(=O)N[C@H](C(=O)N[C@@H](Cc1ccc(C#Cc2cnc(N3CC4CCC(C3)N4C3COC3)nc2)cc1)[C@H](CN(Cc1c(F)cc(-c2ccn(C(F)F)n2)cc1F)NC(=O)[C@@H](NC(=O)OC)C(C)(C)C(F)(F)F)OC(=O)CC(C)(C)c1c(CC(=O)N[C@@H](CC(N)=O)C(=O)O)cc(C)cc1OP(=O)(O)O)C(C)(C)C(F)(F)F` [Example 89] came in with a concentration for a half-maximal effect (EC50) in the series on HIV-1 IIIB strain of 115 nM. For the same compound, the “[Compound]” value in series [1] came to 1704.6 nM. For the same compound, the half-life at 2 μM in the series “PBS Stability Assay” came out at 5.29 h. For the same compound, the solubility at 2 h in the series “Solubility in FaSSIF” was found to be 2390 µg/mL (≈ 1500 µM).
In the series on HIV-1 IIIB strain, `COC(=O)N[C@H](C(=O)N[C@@H](Cc1ccc(C#Cc2cnc(N3CC4CCC(C3)N4C3COC3)nc2)cc1)[C@H](CN(Cc1c(F)cc(-c2ccn(C(F)F)n2)cc1F)NC(=O)[C@@H](NC(=O)OC)C(C)(C)C(F)(F)F)OC(=O)CC(C)(C)c1c(CC(=O)Nc2ccc(S(=O)(=O)O)cc2)cc(C)cc1OP(=O)(O)O)C(C)(C)C(F)(F)F` [Example 90] yielded an EC50 of 101 nM. Moreover, the “[Compound]” value in series [1] was found to be 1746 nM. The half-life at 2 μM in “PBS Stability Assay” amounted to 5.46 h. The compound also came in with a solubility at 2 h in “Solubility in FaSSIF” of 4240 µg/mL (≈ 2590 µM).
As for `COC(=O)N[C@H](C(=O)N[C@@H](Cc1ccc(C#Cc2cnc(N3CC4CCC(C3)N4C3COC3)nc2)cc1)[C@H](CN(Cc1c(F)cc(-c2ccn(C(F)F)n2)cc1F)NC(=O)[C@@H](NC(=O)OC)C(C)(C)C(F)(F)F)OC(=O)CC(C)(C)c1c(CC(=O)NCCCC(=O)O)cc(C)cc1OP(=O)(O)O)C(C)(C)C(F)(F)F` [Example 91], in the series with HIV-1 IIIB strain, the EC50 amounted to 60 nM. Also, the “[Compound]” value in series [1] was 2153.3 nM. Moreover, in “PBS Stability Assay”, the half-life at 2 μM was found to be 6.49 h. The solubility at 2 h in the series “Solubility in FaSSIF” is less than 1000 µg/mL.
For the compound `COC(=O)N[C@H](C(=O)N[C@@H](Cc1ccc(C#Cc2cnc(N3CC4CCC(C3)N4C3COC3)nc2)cc1)[C@H](CN(Cc1c(F)cc(-c2ccn(C(F)F)n2)cc1F)NC(=O)[C@@H](NC(=O)OC)C(C)(C)C(F)(F)F)OC(=O)CC(C)(C)c1c(CC(=O)N[C@H](CCC(=O)O)C(=O)O)cc(C)cc1OP(=O)(O)O)C(C)(C)C(F)(F)F` [Example 92], in the series on HIV-1 IIIB strain, the 50% effective concentration (EC50) was found to be 37.1 nM. Also, the “[Compound]” value in series [1] is 1771.4 nM. Moreover, the half-life at 2 μM in “PBS Stability Assay” stood at 5.95 h. The compound also returned a solubility at 2 h in “Solubility in FaSSIF” of 3660 µg/mL (≈ 2270 µM).
The compound `COC(=O)N[C@H](C(=O)N[C@@H](Cc1ccc(C#Cc2cnc(N3CC4CCC(C3)N4C3COC3)nc2)cc1)[C@H](CN(Cc1c(F)cc(-c2ccn(C(F)F)n2)cc1F)NC(=O)[C@@H](NC(=O)OC)C(C)(C)C(F)(F)F)OC(=O)CC(C)(C)c1c(CC(=O)N(C)CCCC(=O)O)cc(C)cc1OP(=O)(O)O)C(C)(C)C(F)(F)F` [Example 93] displayed an EC50 in the series with HIV-1 IIIB strain of 55.8 nM. In addition, the “[Compound]” value in series [1] amounted to 1917.5 nM. Also, the half-life at 2 μM in “PBS Stability Assay” is 2.77 h. For the same compound, the solubility at 2 h in the series “Solubility in FaSSIF” was less than 1000 µg/mL.
The like results for `COC(=O)N[C@H](C(=O)N[C@@H](Cc1ccc(C#Cc2cnc(N3CC4CCC(C3)N4C3COC3)nc2)cc1)[C@H](CN(Cc1c(F)cc(-c2ccn(C(F)F)n2)cc1F)NC(=O)[C@@H](NC(=O)OC)C(C)(C)C(F)(F)F)OC(=O)CC(C)(C)c1c(CC(=O)N(C)CCC(=O)O)cc(C)cc1OP(=O)(O)O)C(C)(C)C(F)(F)F` [Example 94] were, in that order, 59 nM, 1912 nM, 3.72 h and 1580 µg/mL (≈ 1010 µM).
The compound `COC(=O)N[C@H](C(=O)N[C@@H](Cc1ccc(C#Cc2cnc(N3CC4CCC(C3)N4C3COC3)nc2)cc1)[C@H](CN(Cc1c(F)cc(-c2ccn(C(F)F)n2)cc1F)NC(=O)[C@@H](NC(=O)OC)C(C)(C)C(F)(F)F)OC(=O)CC(C)(C)c1c(CC(=O)N(C)CC(=O)O)cc(C)cc1OP(=O)(O)O)C(C)(C)C(F)(F)F` [Example 95] displayed an EC50 in the series with HIV-1 IIIB strain of 99.1 nM. Moreover, the “[Compound]” value in series [1] came out at 1927.5 nM. Besides, the half-life at 2 μM in the series “PBS Stability Assay” amounted to 4.22 h. Further, the solubility at 2 h in “Solubility in FaSSIF” is 4260 µg/mL (≈ 2740 µM).

These data come from patent US20250051375A1, “ANTI-HIV COMPOUNDS” (Gilead Sciences, Inc., priority 2023, published 2025).
